Molecular target: T1, PKG-1α (Homo sapiens, UniProt Q13976, Y247F)
T1 sequence (Q13976 2-671 Y247F): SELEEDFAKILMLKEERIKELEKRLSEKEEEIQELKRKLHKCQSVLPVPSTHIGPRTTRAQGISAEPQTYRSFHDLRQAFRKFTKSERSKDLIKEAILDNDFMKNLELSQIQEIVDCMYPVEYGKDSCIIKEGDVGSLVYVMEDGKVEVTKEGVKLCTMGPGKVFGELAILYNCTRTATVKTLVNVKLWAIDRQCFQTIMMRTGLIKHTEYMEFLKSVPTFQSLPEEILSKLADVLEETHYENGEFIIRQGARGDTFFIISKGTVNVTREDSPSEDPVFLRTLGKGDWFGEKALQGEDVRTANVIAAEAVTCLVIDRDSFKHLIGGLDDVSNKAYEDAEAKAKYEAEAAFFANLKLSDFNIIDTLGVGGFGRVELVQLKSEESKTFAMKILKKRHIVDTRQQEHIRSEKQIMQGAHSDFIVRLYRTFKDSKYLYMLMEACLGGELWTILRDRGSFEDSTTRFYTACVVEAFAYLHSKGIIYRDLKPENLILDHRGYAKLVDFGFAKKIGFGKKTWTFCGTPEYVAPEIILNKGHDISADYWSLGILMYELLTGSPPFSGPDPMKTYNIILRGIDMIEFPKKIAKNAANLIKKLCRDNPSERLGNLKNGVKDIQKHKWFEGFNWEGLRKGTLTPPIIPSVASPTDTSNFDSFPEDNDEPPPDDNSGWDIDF
Assay: [3H]cGMP binding assay
Parameters: transfected with an expression plasmid containing a full length WT-PKG-1α cDNA; made in house; host or cells: HEK-293T (methods); the results paragraph b527 says PASMC
Conditions: SIN-1 500 μM 30 min
Procedure: HEK-293T cells were transiently transfected with either the WT-PKG-1α or the Y247FPKG-1α cDNA using Effectene transfection reagent (Qiagen), according to the manufacturer's instructions. Briefly, the cells were split the day before the transfection to low cell densities (25%) and were transfected 24 h later. After 48 h of transfection, the cells were incubated in DMEM serum free media containing 1% FBS and antibiotics for 4 h and then treated with or without SIN-1 (500 μM), for 30 min. This method produced an approximate 70% transfection efficiency of HEK-293T cells, as measured using green fluorescent protein vectors. […]
The batches of supernatant were pooled, and 2 μg of anti-PKG-1α antibody per mg of protein were added to the extract and rocked at 4° C. […] After 15 min of agitation at 4° C., the beads were pelleted by centrifugation, and the supernatant containing the PKG-1α protein was collected, quantified using Bradford reagent, and stored at −80° C.
To assay the binding of cGMP to WT- and Y247F-PKG-1α the enzymes were saturated with cGMP by incubating 50 μl aliquots of the diluted PKG constructs for 60 min at room temperature with 50 μl of [^3H]cGMP and 150 μl of cGMP-binding assay mixture (25 mM K2HPO4, 25 mM KH2PO4, 1 mM EDTA, pH 6.8, 2M NaCl, 200 μM 3-isobutyl-1-methylxanthine). […] The dissociation constant (Kd) values were determined using GraphPad Prism graphics.

“3-morpholinosydnonimine N-ethylcarbamide [SIN-1]” was tested, and the “Maximal [3H]cGMP binding to Y247F-PKG-1α” value was “but not to the Y247F-PKG-1α mutant”.
